From BindingDB's records for PubMed 9536007 (University of Bonn, 1998)
“And” between values parts separate entries of the source, which are not always exact repeats. Equal values may be shown once. Where a name gives a salt, the structure may show the parent alone.

molecular target: Nischarin (Rattus norvegicus, UniProt Q4G017)
Sequence (Q4G017 whole entry): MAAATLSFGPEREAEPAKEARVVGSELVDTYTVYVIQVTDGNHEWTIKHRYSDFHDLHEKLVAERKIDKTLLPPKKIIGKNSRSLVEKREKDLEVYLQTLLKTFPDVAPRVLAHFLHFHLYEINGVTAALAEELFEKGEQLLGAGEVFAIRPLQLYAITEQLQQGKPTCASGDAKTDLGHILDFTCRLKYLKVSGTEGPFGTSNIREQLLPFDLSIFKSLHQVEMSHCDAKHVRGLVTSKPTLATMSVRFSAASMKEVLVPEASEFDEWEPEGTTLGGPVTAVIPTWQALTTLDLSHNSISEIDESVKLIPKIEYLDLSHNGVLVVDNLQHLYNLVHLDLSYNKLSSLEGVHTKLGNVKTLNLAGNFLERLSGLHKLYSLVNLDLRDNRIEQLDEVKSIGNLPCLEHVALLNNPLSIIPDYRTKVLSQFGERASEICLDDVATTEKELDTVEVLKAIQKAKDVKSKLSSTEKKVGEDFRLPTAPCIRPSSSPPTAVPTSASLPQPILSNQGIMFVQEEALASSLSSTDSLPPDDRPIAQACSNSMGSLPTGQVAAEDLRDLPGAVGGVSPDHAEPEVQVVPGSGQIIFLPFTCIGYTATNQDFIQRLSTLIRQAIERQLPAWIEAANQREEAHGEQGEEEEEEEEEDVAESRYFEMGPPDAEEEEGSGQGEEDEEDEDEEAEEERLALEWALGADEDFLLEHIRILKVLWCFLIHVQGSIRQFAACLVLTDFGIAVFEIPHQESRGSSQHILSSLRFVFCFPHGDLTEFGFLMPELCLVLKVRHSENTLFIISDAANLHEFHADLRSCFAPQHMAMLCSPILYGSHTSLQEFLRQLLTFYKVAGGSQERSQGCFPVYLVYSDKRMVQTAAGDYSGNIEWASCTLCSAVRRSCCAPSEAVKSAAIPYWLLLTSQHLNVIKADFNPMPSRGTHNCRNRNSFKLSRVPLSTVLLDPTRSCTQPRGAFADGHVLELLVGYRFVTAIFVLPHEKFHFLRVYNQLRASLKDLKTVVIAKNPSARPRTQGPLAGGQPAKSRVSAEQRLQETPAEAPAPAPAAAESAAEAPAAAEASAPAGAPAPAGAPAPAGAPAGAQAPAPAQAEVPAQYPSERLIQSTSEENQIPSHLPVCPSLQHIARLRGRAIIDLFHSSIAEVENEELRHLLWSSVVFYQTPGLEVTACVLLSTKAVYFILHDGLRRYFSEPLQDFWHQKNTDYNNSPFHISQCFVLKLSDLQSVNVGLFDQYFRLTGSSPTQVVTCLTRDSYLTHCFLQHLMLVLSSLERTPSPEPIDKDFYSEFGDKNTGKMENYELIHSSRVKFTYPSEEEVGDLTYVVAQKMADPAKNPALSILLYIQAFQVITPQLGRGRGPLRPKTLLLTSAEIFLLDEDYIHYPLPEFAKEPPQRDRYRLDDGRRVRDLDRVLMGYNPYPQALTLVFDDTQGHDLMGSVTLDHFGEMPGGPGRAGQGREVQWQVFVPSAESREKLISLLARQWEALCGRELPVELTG

SMILES	Ki
CN/C([CH-][N+](=O)[O-])=[NH+]\CCSCc1ccc(CN(C)C)o1	> 10 µM
N=C(N)NCCCCN	> 10 µM
Clc1cccc(Cl)c1N=C1NCCN1 [2-(2,6-dichloroanilino)-2-imidazoline]	2.52 µM and > 10 µM
O=C(CCCN1CCC(O)(c2ccc(Cl)cc2)CC1)c1ccc(F)cc1 [4-[4-(4-Chloro-phenyl)-4-hydroxy-piperidin-1-yl]-1-(4-fluoro-phenyl)-butan-1-one;propionate(HCl)]	0.5 µM
COc1nc(C)nc(Cl)c1N=C1NCCN1 [(4-Chloro-6-methoxy-2-methyl-pyrimidin-5-yl)-imidazolidin-2-ylidene-amine]	> 10 µM
C[C@]12NC(Cc3ccccc31)c1ccccc12 [(5S,10S)-(+)-5-methyl-10,11-dihydro-5Hdibenzo[a,d]cyclohepten-5,10-imine]	> 10 µM
Cc1ccccc1NC(=N)Nc1ccccc1C [CAS_97-39-2]	0.93 µM
CCCN1CCC[C@@H](c2cccc(O)c2)C1 [Preclamol]	> 10 µM
CC(C)=CCN1CC[C@@]2(C)c3cc(O)ccc3C[C@@H]1[C@@H]2C [Talwin]	> 10 µM
NCCc1c[nH]cn1 [[3H]histamine]	> 10 µM
COC(=O)[C@@H]1[C@H]2C[C@H]3c4[nH]c5ccccc5c4CCN3C[C@@H]2CC[C@@H]1O [yohimbic acid methyl ester]	> 10 µM
